Measurements as given in PubChem BioAssay (NCI).
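How tested: cells in 96-well plates exposed to compound for 48 hours at five concentrations. Abbreviation: GI50, concentration required for 50% inhibition of growth. TGI marks complete inhibition of growth.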

Legend:
Test in all cases: growth of human tumour cells (NCI), 48 h
UACC-62 melanoma = test system: UACC-62 melanoma
UO-31 renal = test system: UO-31 renal
OVCAR-4 ovarian = test system: OVCAR-4 ovarian
RPMI-8226 leukemia = test system: RPMI-8226 leukemia
DU-145 prostate = test system: DU-145 prostate
SN12C renal = test system: SN12C renal
SNB-19 CNS = test system: SNB-19 CNS
SK-MEL-5 melanoma = test system: SK-MEL-5 melanoma
HT29 colon = test system: HT29 colon
SK-MEL-28 melanoma = test system: SK-MEL-28 melanoma
OVCAR-8 ovarian = test system: OVCAR-8 ovarian
TK-10 renal = test system: TK-10 renal
EKVX NSCLC = test system: EKVX NSCLC
MCF7 breast = test system: MCF7 breast
U251 CNS = test system: U251 CNS
786-0 renal = test system: 786-0 renal
RXF 393 renal = test system: RXF 393 renal
HOP-92 NSCLC = test system: HOP-92 NSCLC
SW-620 colon = test system: SW-620 colon
T-47D breast = test system: T-47D breast
NCI-H226 lung = test system: NCI-H226 lung
SK-OV-3 ovarian = test system: SK-OV-3 ovarian
NCI/ADR-RES ovarian = test system: NCI/ADR-RES ovarian
UACC-257 melanoma = test system: UACC-257 melanoma
KM12 colon = test system: KM12 colon
A549 NSCLC = test system: A549 NSCLC
M14 melanoma = test system: M14 melanoma
NCI-H460 lung = test system: NCI-H460 lung
ACHN renal = test system: ACHN renal

COc1cc2c(Oc3ccc4[nH]c(C)cc4c3F)ncnc2cc1OCCCN1CCCC1 gave a GI50 (UACC-62 melanoma) of 2.77 µM, a TGI (UACC-62 melanoma) of 6.73 µM and a GI50 (UO-31 renal) of 0.544 µM. The TGI (UO-31 renal) was 5.64 µM, the GI50 (OVCAR-4 ovarian) was 1.38 µM and the TGI (OVCAR-4 ovarian) was 8.99 µM. It also gave a GI50 (RPMI-8226 leukemia) of 3.63 µM, a TGI (RPMI-8226 leukemia) of 10.7 µM and a GI50 (DU-145 prostate) of 4.66 µM. The TGI (DU-145 prostate) was 16 µM, the GI50 (SN12C renal) was 3.84 µM and the TGI (SN12C renal) was 19.9 µM. The GI50 (SNB-19 CNS) was 6.47 µM, the TGI (SNB-19 CNS) was 22.2 µM and the GI50 (SK-MEL-5 melanoma) was 1.62 µM. The TGI (SK-MEL-5 melanoma) was 3.17 µM, the GI50 (HT29 colon) was 1.7 µM and the TGI (HT29 colon) was 4.09 µM. The GI50 (SK-MEL-28 melanoma) was 2.57 µM, the TGI (SK-MEL-28 melanoma) was 6.68 µM and the GI50 (OVCAR-8 ovarian) was 3.88 µM. For the same compound, the TGI (OVCAR-8 ovarian) was 15.6 µM, the GI50 (TK-10 renal) was 1.57 µM and the TGI (TK-10 renal) was 6.98 µM. The GI50 (EKVX NSCLC) was 6.07 µM, the TGI (EKVX NSCLC) was 22.1 µM and the GI50 (MCF7 breast) was 3.79 µM. For the same compound, the TGI (MCF7 breast) was 18.5 µM, the GI50 (U251 CNS) was 1.43 µM and the TGI (U251 CNS) was 6.99 µM. It also gave a GI50 (786-0 renal) of 3.57 µM, a TGI (786-0 renal) of 13.3 µM and a GI50 (RXF 393 renal) of 1.07 µM. For the same compound, the TGI (RXF 393 renal) was 3.31 µM, the GI50 (HOP-92 NSCLC) was 0.761 µM and the TGI (HOP-92 NSCLC) was 5.2 µM. The GI50 (SW-620 colon) was 3.77 µM, the TGI (SW-620 colon) was 14.7 µM and the GI50 (T-47D breast) was 1.8 µM. It also gave a TGI (T-47D breast) of 4.72 µM, a GI50 (NCI-H226 lung) of 0.675 µM and a TGI (NCI-H226 lung) of 9.15 µM. It also gave a GI50 (SK-OV-3 ovarian) of 5.53 µM, a TGI (SK-OV-3 ovarian) of 19 µM and a GI50 (NCI/ADR-RES ovarian) of 9.69 µM. The TGI (NCI/ADR-RES ovarian) was 24.7 µM, the GI50 (UACC-257 melanoma) was 1.75 µM and the TGI (UACC-257 melanoma) was 3.53 µM. For the same compound, the GI50 (KM12 colon) was 4.33 µM, the TGI (KM12 colon) was 15.3 µM and the GI50 (A549 NSCLC) was 3.07 µM. The TGI (A549 NSCLC) was 13 µM, the GI50 (M14 melanoma) was 1.88 µM and the TGI (M14 melanoma) was 3.78 µM. The GI50 (NCI-H460 lung) was 3.29 µM, the TGI (NCI-H460 lung) was 11.6 µM and the GI50 (ACHN renal) was 1.96 µM. For the same compound, the TGI (ACHN renal) was 14.9 µM.
